Experiments:
Format in all cases: in vivo
[1] = tested on: Spodoptera littoralis (Egyptian Cotton Leafworm); experiment: Example B1: activity against Spodoptera littoralis, larvicide, feeding/residual contact, preventive (cotton leaf discs); settings: foliar, 72 h, 3 days after treatment, L1 larvae
Excerpt: Activity Against Spodoptera littoralis (Egyptian Cotton Leafworm)
(§1) (Larvicide, Feeding/Residual Contact Activity, Preventive)
The samples are checked for mortality, repellent effect, feeding behaviour, and growth regulation 3 days after treatment. In this test, compounds listed in Table P above show good activity. In particular compounds P.1, P.2, P.3, P.4, P.5, P.6, P.7, P.9, P.10, P.11, P.12, P.13, P.15, P.16, P.17, P.18, P.19, P.20, P.21, P.22, P.23, P.24, P.25, P.26, P.27, P.28, P.29, P.30, P.31, P.32, P.33, P.34, P.35, P.36, P.37, P.38, P.39, P.40, P.41, P.42, P.43, P.44, P.45, P.46, P.47, P.48, P.49, P.50, P.51, P.52, P.53, P.54, P.55, P.56, P.57, P.58, P.59, P.60, P.61, P.63, P.64, P.67, P.68 and P.70 show an activity of over 80% at a concentration of 400 ppm.

[2] = tested on: Heliothis virescens (Tobacco Budworm); experiment: Example B2: activity against Heliothis virescens, ovo-larvicide, feeding/contact, curative; settings: 96 h, 4 days incubation, eggs 0-24 h old
Procedure: Activity Against Heliothis virescens (Tobacco Budworm)
(Ovo-Larvicide, Feeding/Contact Activity, Curative)
Eggs (0-24 h old) are placed in 24-well microtiter plate on artificial diet and treated with test solutions by pipetting. After an incubation period of 4 days, samples are checked for egg mortality, larval mortality, and growth regulation.

[3] = tested on: Plutella xylostella (Diamond Back Moth); experiment: Example B3: Plutella xylostella, larvicide, feeding/residual contact, preventive (artificial diet MTP); settings: 120 h, 5 days incubation, L2 larvae
Procedure: Plutella xylostella (Diamond Back Moth)
as §1
24-well microtiter plate (MTP) with artificial diet is treated with test solutions by pipetting. After drying, the MTP's are infested with larvae (L2)(10-15 per well). After an incubation period of 5 days, samples are checked for larval mortality, antifeedant and growth regulation. In this test, compounds listed in Table P above show good activity. In particular compounds P.1, P.2, P.3, P.4, P.5, P.6, P.7, P.9, P.10, P.11, P.12, P.13, P.15, P.16, P.17, P.18, P.19, P.20, P.21, P.22, P.23, P.25, P.26, P.27, P.28, P.29, P.30, P.31, P.32, P.33, P.34, P.35, P.36, P.37, P.38, P.39, P.40, P.41, P.42, P.43, P.44, P.46, P.47, P.48, P.49, P.50, P.51, P.52, P.53, P.54, P.55, P.56, P.57, P.58, P.59, P.60, P.61, P.63, P.64, P.67, P.68, P.69 P.70, P.72, P.74, P.77, P78 and P.79 show an activity of over 80% at a concentration of 400 ppm.

[4] = tested on: Diabrotica balteata (Corn Root Worm); experiment: Example B4: Diabrotica balteata, larvicide, feeding/residual contact, preventive; settings: 120 h, 5 days incubation, L2 larvae
Procedure: Diabrotica balteata (Corn Root Worm)
as §1
After drying, the MTP's are infested with larvae (L2)(6-10 per well). After an incubation period of 5 days, samples are checked for larval mortality, antifeedant and growth regulation. In this test, compounds listed in Table P above show good activity. In particular compounds P.1, P.2, P.5, P.6, P.10, P.11, P.12, P.13, P.15, P.16, P.17, P.18, P.19, P.24, P.25, P.27, P.28, P.29, P.30, P.31, P.33, P.34, P.35, P.37, P.38, P.39, P.42, P.43, P.44, P.45, P.46, P.47, P.48, P.49, P.50, P.52, P.53, P.65, P.67, P.68, P.69, P.70, P.71, P.72, P.75, P.78, and P.79 show an activity of over 80% at a concentration of 400 ppm.

Compound | pest or weed control at 400 ppm [1] [%] | pest or weed control at 400 ppm [2] [%] | pest or weed control at 400 ppm [3] [%] | pest or weed control at 400 ppm [4] [%]
CC(C)NC(=O)c1c(NC(=O)c2cc(C(F)(F)F)nn2-c2ncccc2Cl)ccc2cc[nH]c12 [P.1] | > 80 | > 80 | > 80 | > 80
O=C(NCC1CC1)c1c(NC(=O)c2cc(C(F)(F)F)nn2-c2ncccc2Cl)ccc2cn[nH]c12 [P.4] | > 80 | > 80 | > 80 | –
O=C(NC1(C2CC2)CC1)c1c(NC(=O)c2cc(C(F)(F)F)nn2-c2ncccc2Cl)ccc2cn[nH]c12 [P.5] | > 80 | > 80 | > 80 | > 80
CSCC(C)(C)NC(=O)c1c(NC(=O)c2cc(C(F)(F)F)nn2-c2ncccc2Cl)ccc2cn[nH]c12 [P.7] | > 80 | > 80 | > 80 | –
Cc1cc2c(ccc(C)[n+]2[O-])c(C(=O)NC(C)C)c1NC(=O)c1cc(C(F)(F)F)nn1-c1ncccc1Cl [P.21] | > 80 | > 80 | > 80 | –
CCNC(=O)c1c(NC(=O)c2cc(C(F)(F)F)nn2-c2ncccc2Cl)c(C)cc2nc(C)ccc12 [P.23] | > 80 | > 80 | > 80 | –
CCCc1nc2cc(C)c(NC(=O)c3cc(C(F)(F)F)nn3-c3ncccc3Cl)c(C(=O)NC(C)C)c2cc1CC [P.24] | > 80 | – | – | > 80
Cc1n[nH]c2c(C(=O)NC(C)C)c(NC(=O)c3cc(C(F)(F)F)nn3-c3ncccc3Cl)c(Cl)cc12 [P.69, 5-chloro-6-{[2-(3-chloro-pyridin-2-yl)-5-trifluoromethyl-2H-pyrazole-3-carbonyl]-amino}-3-methyl-1H-indazole-7-carboxylic acid isopropylamide] | – | > 80 | > 80 | > 80
Cc1n[nH]c2c(C(=O)NC3(C4CC4)CC3)c(NC(=O)c3cc(C(F)(F)F)nn3-c3ncccc3Cl)c(Cl)cc12 [P.72, 5-chloro-6-{[2-(3-chloro-pyridin-2-yl)-5-trifluoromethyl-2H-pyrazole-3-carbonyl]-amino}-3-methyl-1H-indazole-7-carboxylic acid bicyclopropyl-1-ylamide] | – | > 80 | > 80 | > 80
CNC(=O)c1c(NC(=O)c2cc(C(F)(F)F)nn2-c2ncccc2Cl)ccc2cccnc12 [P.74, 7-{[2-(3-chloro-pyridin-2-yl)-5-trifluoromethyl-2H-pyrazole-3-carbonyl]-amino}-quinoline-8-carboxylic acid methylamide] | – | > 80 | > 80 | –
CC(C)NC(=O)c1c(NC(=O)c2cc(C(F)(F)F)nn2-c2ncccc2Cl)ccc2ncccc12 [P.75, 6-{[2-(3-chloro-pyridin-2-yl)-5-trifluoromethyl-2H-pyrazole-3-carbonyl]-amino}-quinoline-5-carboxylic acid isopropylamide] | – | – | – | > 80
CNC(=O)c1c(NC(=O)c2cc(C(F)(F)F)nn2-c2ncccc2Cl)c(C)cc2ncccc12 [P.77, 6-{[2-(3-chloro-pyridin-2-yl)-5-trifluoromethyl-2H-pyrazole-3-carbonyl]-amino}-7-methyl-quinoline-5-carboxylic acid methylamide] | – | > 80 | > 80 | –
C#Cc1cc2cn[nH]c2c(C(=O)NC2(C3CC3)CC2)c1NC(=O)c1cc(C(F)(F)F)nn1-c1ncccc1Cl [P.79, 6-{[2-(3-chloro-pyridin-2-yl)-5-trifluoromethyl-2H-pyrazole-3-carbonyl]-amino}-5-ethynyl-1H-indazole-7-carboxylic acid bicyclopropyl-1-ylamide] | – | – | > 80 | > 80
